Source: paper PMC10180488, “Novel Derivatives of Eugenol as a New Class of PPARγ Agonists in Treating Inflammation: Design, Synthesis, SAR Analysis and In Vitro Anti-Inflammatory Activity” (Molecules, 2023)
Values joined by “and” are separate entries in the source; they are usually repeats but may differ in a detail not shown here. Equal values may be shown once.

What was measured:
egg albumin = egg albumin (Gallus gallus, UniProt P01012); assay: Albumin denaturation assay; type: biochemical, hen; settings: mean ± SD (n = 3), read-out: Percentage inhibition of denaturation of albumin
Sequence of egg albumin (P01012 2-386): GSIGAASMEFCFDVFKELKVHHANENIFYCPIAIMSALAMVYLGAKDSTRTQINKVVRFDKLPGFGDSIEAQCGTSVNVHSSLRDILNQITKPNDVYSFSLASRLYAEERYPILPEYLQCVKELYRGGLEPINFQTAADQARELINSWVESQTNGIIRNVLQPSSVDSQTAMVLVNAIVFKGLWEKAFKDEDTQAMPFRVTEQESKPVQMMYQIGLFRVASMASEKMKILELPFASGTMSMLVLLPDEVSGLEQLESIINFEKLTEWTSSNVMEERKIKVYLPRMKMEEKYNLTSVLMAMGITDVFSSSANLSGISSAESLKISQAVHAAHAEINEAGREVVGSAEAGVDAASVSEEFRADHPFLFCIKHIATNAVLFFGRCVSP
Experimental: Inflammation is accompanied by protein denaturation. Tissue protein denaturation is a well-established cause of Inflammatory illnesses. Inflammatory disorders including rheumatoid arthritis, diabetes, and cancer have been linked to the denaturation of proteins. The ability of a substance to stop proteins from becoming denaturized has a role in the prevention of inflammatory disorders. […] Denaturation of proteins is accomplished by keeping the reaction mixture in a water bath at 70 °C for […].
Minor modifications were made to Mizushima and Kobayashi’s and Sakat et al. methodologies. The reaction mixture containing 0.2 mL of egg albumin (from a fresh hen’s egg) is mixed with 2.8 mL of phosphate-buffered saline (PBS, pH 6.4) and 2 mL of synthesized compounds in varying concentrations. The mixture was then heated at 70 °C for 5 min after being incubated at 37 °C for approximately 15–20 min. After cooling, their absorbance was measured at 660 nm spectrometrically. Three duplicates of the experiment were carried out. […] Percentage inhibition = (OD control − OD sample/OD control) × 100

human PPARγ- LBD = target: T1, human PPARγ- LBD (Homo sapiens, UniProt P37231); assay: Lanthascreen TR-FRET PPARγ competitive binding assay; settings: for IC50: Lanthascreen TR-FRET competitive binding; for Raw Data / Raw Data - Background: TR-FRET
T1 construct: a mixture of a human PPARγ- LBD labelled with glutathione S-transferase (GST)
T1 sequence (P37231 238-503 limits assumed): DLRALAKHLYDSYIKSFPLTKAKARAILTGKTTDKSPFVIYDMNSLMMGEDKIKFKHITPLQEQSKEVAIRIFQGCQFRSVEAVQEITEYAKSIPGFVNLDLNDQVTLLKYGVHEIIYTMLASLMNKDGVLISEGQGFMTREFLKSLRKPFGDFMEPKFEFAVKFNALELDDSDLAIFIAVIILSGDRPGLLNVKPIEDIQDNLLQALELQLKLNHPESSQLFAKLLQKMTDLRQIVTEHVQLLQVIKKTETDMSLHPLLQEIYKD
Experimental: Using the Lanthasreen TR-FRET assay, the synthesized compounds were first preliminary tested for the PPARγ binding affinity. […] A chemical under test displaces the tracer from PPAR-LBD, which lowers the TR-FRET ratio and decreases the FRET signal Figure 8 [33].
A multimode low-volume proxy plate reader was used to read the plates after one hour of incubation. Then, a mixture of a human PPARγ- LBD labelled with glutathione S-transferase (GST), a fluorescent small pan-PPAR ligand (FluormoneTM Pan-PPAR Green), and terbium-labeled anti-GST antibody was added.

[1] = tested on: human red blood cells (HRBC); assay: HRBC membrane stabilization method; settings: for HRBC membrane stabilization (percentage protection against HRBC lysis): mean ± SD (n = 3); for IC50: Homo sapiens, Erythrocyte, read-out: IC50 Values, HRBC membrane stabilization method
Experimental: The principle of this procedure is to stabilize the membrane of human red blood cells by hypotonic membrane lysis. […] Lysosomal enzyme levels typically decrease as the HRBC membrane is stabilized.
The packed cells in this blood solution were separated after centrifugation at 3000 rpm [41]. The packed cells were cleaned using an isosaline solution, and then, isosaline was used to prepare a 10% v/v suspension. This HRBC suspension was employed to estimate its anti-inflammatory properties. Different concentrations of the synthesized compounds and the reference standard were each combined with 1 mL of phosphate buffer (pH 7.4), 2 mL of hyposaline, and 0.5 mL of HRBC solution. A total of 2.0 mL of distilled water was utilized as the control. The assay mixtures were all centrifuged at 3000 rpm after 30 min of incubation at 37°C. The following formula was used to determine the percentage of stabilized HRBC membranes. Percentage protection= 100 − (OD sample/OD control) × 100

Compound	inhibition at 6.25 µM (egg albumin) [%]	inhibition at 12.5 µM (egg albumin) [%]	inhibition at 25 µM (egg albumin) [%]	inhibition at 50 µM (egg albumin) [%]	inhibition at 100 µM (egg albumin) [%]	inhibition at 200 µM (egg albumin) [%]	inhibition at 400 µM (egg albumin) [%]	IC50 (human PPARγ- LBD) [µM]	Raw Data (human PPARγ- LBD; 0.0000512 µM) [RLU]	Raw Data - Background (human PPARγ- LBD; 0.0000512 µM) [RLU]	Raw Data (human PPARγ- LBD; 0.000256 µM) [RLU]	Raw Data - Background (human PPARγ- LBD; 0.000256 µM) [RLU]	Raw Data (human PPARγ- LBD; 0.00128 µM) [RLU]	Raw Data - Background (human PPARγ- LBD; 0.00128 µM) [RLU]	Raw Data (human PPARγ- LBD; 0.0064 µM) [RLU]	Raw Data - Background (human PPARγ- LBD; 0.0064 µM) [RLU]	Raw Data (human PPARγ- LBD; 0.032 µM) [RLU]	Raw Data - Background (human PPARγ- LBD; 0.032 µM) [RLU]	Raw Data (human PPARγ- LBD; 0.16 µM) [RLU]	Raw Data - Background (human PPARγ- LBD; 0.16 µM) [RLU]	also measured
C=CCc1ccc(OCC(=O)Nc2ccccc2C)c(OC)c1 [Compound 1c, 2-(4-Allyl-2-methoxyphenoxy)-N-(o-tolyl)acetamide]	1.77 ± 0.37	5.32 ± 0.37	8.42 ± 0.24	13.8 ± 0.43	19.2 ± 0.24	27.26 ± 0.24	34.03 ± 0.31	8.2	1.881	1.647	1.88	1.646	1.88	1.637	1.886	1.651	1.902	1.657	1.994	1.76	Raw Data (human PPARγ- LBD; 0.8 µM): 1.991 RLU; Raw Data - Background (human PPARγ- LBD; 0.8 µM): 1.756 RLU; Raw Data (human PPARγ- LBD; 4 µM): 1.33 RLU; Raw Data - Background (human PPARγ- LBD; 4 µM): 1.096 RLU; Raw Data (human PPARγ- LBD; 20 µM): 0.1617 RLU; Raw Data - Background (human PPARγ- LBD; 20 µM): 0.02704 RLU; Raw Data (human PPARγ- LBD; 100 µM): 0.06866 RLU; Raw Data - Background (human PPARγ- LBD; 100 µM): -0.146 RLU; HRBC membrane stabilization (percentage protection against HRBC lysis) ([1]; 6.25 µM): 6.21 ± 0.38%; HRBC membrane stabilization (percentage protection against HRBC lysis) ([1]; 12.5 µM): 14.26 ± 0.38%; HRBC membrane stabilization (percentage protection against HRBC lysis) ([1]; 25 µM): 24.78 ± 0.38%; HRBC membrane stabilization (percentage protection against HRBC lysis) ([1]; 50 µM): 29.08 ± 0.46%; HRBC membrane stabilization (percentage protection against HRBC lysis) ([1]; 100 µM): 40.65 ± 0.28%; HRBC membrane stabilization (percentage protection against HRBC lysis) ([1]; 200 µM): 50.92 ± 0.48%; HRBC membrane stabilization (percentage protection against HRBC lysis) ([1]; 400 µM): 62.54% and 62.54 ± 0.36%; IC50 [1]: 79.7 µM
C=CCc1ccc(OCC(=O)Nc2ccccc2)c(OC)c1 [Compound 1a, 2-(4-Alyl-2-methoxyphenoxy)-N-phenylacetamide]	1.67 ± 0.37	5.32 ± 0.37	10.2 ± 0.24	14.5 ± 0.43	19.2 ± 0.24	25.1 ± 0.31	32.3 ± 0.37	29.8	1.916	1.681	1.915	1.68	1.916	1.681	1.92	1.685	2.058	1.823	1.971	1.736	Raw Data (human PPARγ- LBD; 0.8 µM): 1.899 RLU; Raw Data - Background (human PPARγ- LBD; 0.8 µM): 1.664 RLU; Raw Data (human PPARγ- LBD; 4 µM): 1.717 RLU; Raw Data - Background (human PPARγ- LBD; 4 µM): 1.483 RLU; Raw Data (human PPARγ- LBD; 20 µM): 1.047 RLU; Raw Data - Background (human PPARγ- LBD; 20 µM): 0.813 RLU; Raw Data (human PPARγ- LBD; 100 µM): 0.245 RLU; Raw Data - Background (human PPARγ- LBD; 100 µM): 0.01 RLU; HRBC membrane stabilization (percentage protection against HRBC lysis) ([1]; 6.25 µM): 4.79 ± 0.48%; HRBC membrane stabilization (percentage protection against HRBC lysis) ([1]; 12.5 µM): 10.45 ± 0.38%; HRBC membrane stabilization (percentage protection against HRBC lysis) ([1]; 25 µM): 21.40 ± 0.36%; HRBC membrane stabilization (percentage protection against HRBC lysis) ([1]; 50 µM): 28.78 ± 0.66%; HRBC membrane stabilization (percentage protection against HRBC lysis) ([1]; 100 µM): 37.88 ± 0.28%; HRBC membrane stabilization (percentage protection against HRBC lysis) ([1]; 200 µM): 47.23 ± 0.48%; HRBC membrane stabilization (percentage protection against HRBC lysis) ([1]; 400 µM): 60.88% and 60.88 ± 0.36%; IC50 [1]: 79.5 µM
